Converted amounts (≈) assume the structure as drawn. Like-named read-outs stand apart in the source and are kept apart here.

Experiment [1] deals with C. albicans (Fluconazole resistant). The experiment is described as follows: Broth microdilution test (MIC, colony counts). It is filed as cell-based, Candida albicans. Here is the method:
(§1) Non-Aspergillus yeast strains used (Table 1) were plated onto Sabouraud's dextrose agar (Oxoid, Basingstoke, UK) and incubated at 37° C. for 24 hours. The strains were identified with the API 20C system (BioMerieux, Marcy L'Etoile, France). If needed, microscopical examinations of morphology on cornmeal agar (Oxoid) was used to confirm the identity.
(§2) For non-Aspergillus strains, suspensions were prepared from individual colonies (diameter≧1 mm) in 5 ml of sterile 0.85% saline to a density of […] as established by counting on a haemocytometer grid. For Aspergillus strains, see below.
(§3) RPMI broth was prepared from RPMI 1640 broth medium (Sigma R7880) supplemented with 0.3 g of glutamine per litre, buffered with 34.6 g of morpholine propanesulfonic acid (MOPS) per litre and adjusted to ph 7.0.
Twofold dilutions ([…] for amphotericin B and 400 to 0.4 mg/ml for fluconazole) were prepared in RPMI broth starting from the two stock solutions. A 100 μl suspension of the inoculum diluted 1 in 10 (equivalent to 1×10^3 cfu) was added to the microtiter plates. To this was added 50 μl of the antifungal and then 50 μl of the antibody. Antibody was either neat (0.4 mg/mil), or diluted to 1/10or 1/100. When antibody was absent, the 50 μl volume was made up by RPMI. […]
Colony counts were determined for the wells where there was a visual reduction in yeast growth. […]
On the technique in general: In broth dilution the organism is exposed to a series of concentrations in liquid medium.

A further experiment concerns C. krusei (FA/157). The experiment is described as follows: Broth microdilution test (MIC, colony counts). The experiment is classed as cell-based. The settings on record: for MIC: Pichia kudriavzevii; for MIC / Colony counts: no antibody. Here is the method:
as §1, §2, §3
(§4) Twofold dilutions ([…] for amphotericin B and 400 to 0.4 mg/ml for fluconazole) were prepared in RPMI broth starting from the two stock solutions. A 100 μl suspension of the inoculum diluted 1 in 10 (equivalent to 1×10^3 cfu) was added to the microtiter plates. To this was added 50 μl of the antifungal and then 50 μl of the antibody. Antibody was either neat (0.4 mg/mil), or diluted to 1/10or 1/100. When antibody was absent, the 50 μl volume was made up by RPMI. The total volume in each well was 200 μl. Final concentrations of antibody in the experiments were: 100 μg/ml (“neat”), 10 μg/ml (“ 1/10antibody”) or 1 μg/ml (“ 1/100antibody”).
(§5) Plates were incubated at 37° C. overnight and the minimum inhibitory concentration (MIC) defined by the lower concentration inhibiting growth.
(§6) Colony counts were determined for the wells where there was a visual reduction in yeast growth. Results were represented as colony forming units per ml of broth (cfu/ml).

Experiment [2] concerns C. parapsilosis (NCPF #3104). Briefly: Broth microdilution test (MIC, colony counts). The experiment is classed as cell-based. The settings on record: for MIC: Lodderomyces parapsilosis, NCPF3104, no antibody; for Colony counts: no antibody. Here is the method: as §1, §2, §3, §4, §5, §6
The test system of experiment [3] is C. tropicalis (NCPF #3111). The experiment is described as follows: Broth microdilution test (MIC, colony counts). It is filed as cell-based. The settings on record: for MIC: Candida tropicalis, NCPF3111, no antibody. Here is the method:
as §1, §2, §3, §4, §5, §6

The test system of experiment [4] is Candida albicans (outbreak). Briefly: Broth microdilution test (MIC, colony counts). It is filed as cell-based. Here is the method: as §1, §2, §3, §4, §5, §6
Experiment [5] has as its system Torulopsis glabrata (NCPF #3240). Briefly: Broth microdilution test (MIC, colony counts). The experiment is classed as cell-based. The settings on record: T. glabrata; for MIC: Nakaseomyces glabratus, NCPF3240. Here is the method:
as §1, §2, §3, §4, §5, §6

For experiment [6], the system named is Aspergillus fumigatus (NCPF #2109). The experiment is described as follows: Aspergillus studies, MIC in microtitre plates. It is filed as cell-based. Conditions: NCPF2109, formulation buffer only, read-out: MIC to Amphotericin B.
Method: (§7) Isolates of Aspergillus fumigatus, Aspergillus flavus and Aspergillus niger were prepared in RPMI 1640 medium. The suspensions were prepared to give a final inoculum of 2×10^4 conidia per ml and these were dispensed in 100 μl aliquots into flat-bottomed microtitre plates. A double dilution series of Amphotericin B ranging from 250 μg/nil to 0.75 μg/ml was prepared and dispensed to the appropriate wells. Mycograb was added to each of the wells at a final concentration of 100 μg/ml in formulation buffer. A control series was also prepared for each isolate which contained formulation buffer only.
Another experiment has as its system Aspergillus flavus. Briefly: Aspergillus studies, MIC in microtitre plates. The experiment is classed as cell-based. Conditions: formulation buffer only, read-out: MIC to Amphotericin B.
The test system of a further experiment is Aspergillus niger. The experiment is described as follows: Aspergillus studies, MIC in microtitre plates. The experiment is classed as cell-based. Conditions: formulation buffer only, read-out: MIC to Amphotericin B.
For experiment [7], the system named is C. albicans outbreak strain. The experiment is described as follows: Animal synergy: yeast counts in tissues of infected mice. Conditions: Group 1: amphotericin B 0.6 mg/kg only, 48 hours. It is filed as in vivo, CD1 mice.
Method: Thirty CD1 mice (each weighing about 25 g) were injected with 100 μl of C. albicans outbreak strain (equivalent to 1.5×10^7 cfu) and after 2 hours the mice were split into three groups and injected with:
(A) Group 1—100 μl solution of 10 mM ammonium acetate (AAT; pH 9), followed by 100 μl amphotericin B equivalent to 0.6 mg/kg in a 5% (w/v) glucose solution;
(B) Group 2—100 μl solution of 10 mM AAT (pH 9) solution containing 500 μg anti-hsp90 antibody, followed by 100 μl amphotericin B equivalent to 0.6 mg/kg in a 5% (w/v) glucose solution; and
(C) Group 3—100 μl solution of 10 mM AAT (pH 9) containing 50 μg anti-hsp90 antibody, followed by 100 μl amphotericin B equivalent to 0.6 mg/kg in a 5% (w/v) glucose solution.
The animals were culled after 48 hours and yeast counts on Sabouraud's plates of liver, spleen and kidney tissue performed.
[8] abbreviates: read-out: MIC to amphotericin B.
Setting [9] is: antibody 0.313 μg/ml, no antifungal agent.

Method for Aspergillus flavus: as §7
Method for Aspergillus niger: as §7

As usually defined, the MIC is the lowest concentration found to suppress growth. On to `C[C@@H]1[C@H](O)[C@@H](C)/C=C/C=C/C=C/C=C/C=C/C=C/C=C/[C@H](O[C@@H]2O[C@H](C)[C@@H](O)[C@H](N)[C@@H]2O)C[C@@H]2O[C@](O)(C[C@@H](O)C[C@@H](O)[C@H](O)CC[C@@H](O)C[C@@H](O)CC(=O)O[C@H]1C)C[C@H](O)[C@H]2C(=O)O` [Amphotericin B, amphotericin B], for which the minimal inhibitory concentration (MIC) was found to be 0.312 µg/mL (≈ 0.338 µM) in experiment [1] (Candida albicans, C. albicans fluconazole resistant, no antibody, read-out: MIC to amphotericin B); 0.625 µg/mL (≈ 0.676 µM) with C. krusei (FA/157) (setting [8]); 0.625 µg/mL (≈ 0.676 µM) in [2] (setting [8]); 0.078 µg/mL (≈ 0.0844 µM) in [3] (setting [8]); 0.156 µg/mL (≈ 0.169 µM) in experiment [4] (Candida albicans, C. albicans (outbreak), no antibody, read-out: MIC to amphotericin B); 0.039 µg/mL (≈ 0.0422 µM) in experiment [5] (no antibody, read-out: MIC to amphotericin B). Moreover, the minimal inhibitory concentration (MIC) (in experiment [6]; with Aspergillus flavus; in the experiment with Aspergillus niger) was 2.5 µg/mL (≈ 2.71 µM) throughout. The Colony counts in experiment [2] (amphotericin B 0.313 μg/ml) is on record as 3 × 10^6 cfu/ml; in [2] (amphotericin B 0.626 μg/ml), 6.3 × 10^3 cfu/ml; in [5] (amphotericin B 0.009 μg/ml, no antibody), 1.1 × 10^7 cfu/ml. The “Colonies of C. albicans in tissue” value in [7] (Kidney) is recorded as 6.80 ± 0.916 cfu/ml, in log10; in [7] (Liver), 4.26 ± 1.42 cfu/ml, in log10; in experiment [7] (Spleen) it was 4.18 ± 1.18 cfu/ml, in log10.
As to `OC(Cn1cncn1)(Cn1cncn1)c1ccc(F)cc1F` [Fluconazole, fluconazole], the MIC in the experiment on C. krusei (FA/157) (read-out: MIC to fluconazole) came out at 100 µg/mL (≈ 327 µM); in experiment [2] (read-out: MIC to fluconazole) it was 6.25 µg/mL (≈ 20.4 µM); in [3] (read-out: MIC to fluconazole), 3.12 µg/mL (≈ 10.2 µM); in experiment [5] (no antibody, read-out: MIC to fluconazole), 1.56 µg/mL (≈ 5.09 µM). Besides, the Colony counts in the experiment with C. krusei (FA/157) (fluconazole 25 μg/ml) was 3.2 × 10^7 cfu/ml; in the experiment with C. krusei (FA/157) (fluconazole 50 μg/ml) it was 1.6 × 10^7 cfu/ml; in [2] (fluconazole 3.13 μg/ml), 2.6 × 10^6 cfu/ml; in experiment [3] (fluconazole 0.09 μg/ml, no antibody) it was 5 × 10^5 cfu/ml; in experiment [4] (C. albicans outbreak strain, fluconazole 0.09 μg/ml, no antibody) it was 3.6 × 10^5 cfu/ml.

B1: antibody: antibody of SEQ ID NO: 2 (heavy, light and spacer domains) recognising Candida albicans hsp90 epitope SEQ ID NO: 1, expressed in E. coli (protein)
scFv: HMAEVQLVESGAEVKKPGESLRISCKGSGCIISSYWISWVRQMPGKGLEWMGKIDPGDSYINYSPSFQGHVTISADKSINTAYLQWNSLKASDTAMYYCARGGRDFGDSFDYWGQGTLVTVSSGGGGSGGGGSGGGGSDVVMTQSPSFLSAFVGDRITITCRASSGISRYLAWYQQAPGKAPKLLIYAASTLQTGVPSRFSGSGSGTEFTLTINSLQPEDFATYYCQHLNSYPLTFGGGTKVDIKRAA
Consider B1, for which the “Effect of antibody on its own against yeast growth” value in experiment [1] (C. albicans (fluconazole resistant), antibody 0.313 μg/ml, no antifungal agent) is 6 × 10^6 cfu/ml; in the experiment with C. krusei (FA/157) (setting [9]), 1.6 × 10^6 cfu/ml; in experiment [2] (setting [9]), 2.6 × 10^4 cfu/ml; in experiment [3] (setting [9]) it was 6.0 × 10^5 cfu/ml; in experiment [4] (C. albicans (outbreak), antibody 0.313 μg/ml, no antifungal agent), 5.6 × 10^6 cfu/ml; in experiment [5] (setting [9]), 1.2 × 10^7 cfu/ml.

Values taken from patent US20030180285A1, “Treatment of fungal infections with polyene or beta glucan synthase inhibitor anti-fungals combined with anti hsp90 antibodies” (priority 2000, published 2003).
